This is an account of results in patent US4990500A, “Oxirane pseudooligosaccharides, a process for their preparation, their use and pharmaceutical preparations” (Hoechst Aktiengesellschaft, priority 1986, dated 1991).

Counter-ions that a name gives are not always drawn.

In data set [1] the target is T1, α-Amylase from the pig pancreas (Sus scrofa, UniProt P00690).
T1 construct: from tissue; host or cells: pig pancreas
T1 sequence (P00690 16-511): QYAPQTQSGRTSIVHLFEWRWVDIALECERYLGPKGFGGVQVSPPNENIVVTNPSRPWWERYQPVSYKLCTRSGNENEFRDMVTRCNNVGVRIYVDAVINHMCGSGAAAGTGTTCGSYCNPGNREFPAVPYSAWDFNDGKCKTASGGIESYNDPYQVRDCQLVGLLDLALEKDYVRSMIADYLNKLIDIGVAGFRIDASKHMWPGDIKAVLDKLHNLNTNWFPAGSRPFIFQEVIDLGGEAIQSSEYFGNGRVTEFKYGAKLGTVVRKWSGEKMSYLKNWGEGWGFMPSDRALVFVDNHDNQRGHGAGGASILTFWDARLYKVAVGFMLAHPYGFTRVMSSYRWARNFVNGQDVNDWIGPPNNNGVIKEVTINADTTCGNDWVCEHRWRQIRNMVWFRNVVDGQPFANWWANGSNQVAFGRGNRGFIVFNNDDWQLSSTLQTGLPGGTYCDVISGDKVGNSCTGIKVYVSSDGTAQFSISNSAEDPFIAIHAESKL
As to the kind of experiment: Amylase test (inhibition of α-amylase, soluble starch according to Zulkowski, dinitrosalicylic acid). The settings on record: for specific activity, α-amylase inhibitor units (AIU) per mg: 1 AIU = amount inhibiting two amylase units to 50%, 37° C., pH 6.9. Format: biochemical. The protocol: (§1) The specific activities are 4×10^4 α-amylase inhibitor units (AIU) per mg and 1×10^4 saccharase inhibitor unit (SIU) per mg respectively for W-46 H, and 1×10^4 AIU per mg and 3×10^4 SIU per mg respectively for the inhibitor W-46 P. The activities were determined in the following tests:
An amylase inhibitor unit (AIU) is defined as the amount of inhibitor which is capable of inhibiting two amylase units (AU) to 50% under the test conditions. According to international agreement, one amylase unit is the amount enzyme which cleaves 1 μequivalent of glucoside bonds in the starch in one minute. The μgram-equivalents of cleaved glucoside bonds are determined photometrically using dinitrosalicylic acid as the μgram-equivalents of reducing sugars. The data are calculated as μmoles of maltose, determined with reference to a maltose calibration line.
The tests are carried out as follows:
α-Amylase from the pig pancreas and the solutions to be tested are preincubated together at 37° C. for 10-20 minutes in 1.0 ml of 20 mM phosphate buffer, pH 6.9+10 mM of NaCl. The enzymatic reaction is initiated according to Zulkowski by adding 1.0 ml of soluble starch (0.25% in the buffer specified). After exactly 10 minutes, the reaction is terminated using 2.0 ml of dinitrosalicylic acid coloring reagent (according to Boehringer Mannheim: BiochemicaInformation II) and the mixture is heated for 5 minutes in a boiling water bath to develop the color. After cooling, the extinction is measured at 546 nm against the blank reagent. 50% inhibition is determined graphically compared to the uninhibited enzyme reaction by means of the probability plot by using various amounts of inhibitor.

For data set [2], the target named is T2, saccharase (disaccharidases from the small intestine mucosa) (Homo sapiens, UniProt P14410).
T2 construct: from tissue
As to the kind of experiment: Saccharase test (inhibition of saccharase, hexokinase/glucose-6-phosphate dehydrogenase method). Format: biochemical. The settings on record: for specific activity, saccharase inhibitor units (SIU) per mg: 1 SIU = amount inhibiting two saccharase units to 50%. As to the method: as §1
One saccharase inhibitor unit (SIU) is defined as the amount of inhibitor which is capable of inhibiting to 50% two saccharase units (SU) under the test conditions. According to international agreement, one SU is the amount of enzyme which cleaves 1 μequivalent of glycoside bonds in saccharose in one minute. The μgram-equivalents of cleaved glucoside bonds are determined photometrically using the hexokinase/glucose-6-phosphate dehydrogenase method as 2 μgram equivalents. The data are calculated as μmoles of hexoses, determined with reference to a glucose calibration curve.
The tests were carried out according to H. U. Bergmeyer, described in "Methods of Enzymatic Analysis", 3rd edition, Verlag Chemie, Weinheim, 1984, pages 96-103.

Data set [3] concerns blood glucose concentration of starch-fed rats. As to the kind of experiment: Action on the blood glucose concentration of starch-fed rats. Format: in vivo, male Wistar rats. Particulars: for Blood glucose: 2 g/kg starch, mean ± SEM, n = 7. The text has this: (§2) In order to test the pharmacological action of the α-glucosidase inhibitors, unfed, male Wistar rats weighing between 200 and 250 g were given orally an inhibitor W-46 H or W-46 P according to the invention together with 2 g of starch or sucrose per kg of body weight as a suspension in ®Tylose (methylhydroxyethylcellulose).
(§3) In these investigations, the values collated in Tables 1 (action on the blood glucose concentration of starch-fed rats) and 2 (action on the blood glucose concentration of sucrose-fed rats) were determined for inhibitor W-46 H.
(§4) A limiting value of 0.27 mg/kg of rat is calculated from the values given in Table 1 and a limiting value of 1.29 mg/kg of rat from the values given in Table 2 (the limiting value of the active ingredient is taken to mean the amount per kg of experimental animal at whose administration a clear action can still be seen after one hour).

For data set [4], the system named is blood glucose concentration of sucrose-fed rats. Nature of the data set: Action on the blood glucose concentration of sucrose-fed rats. Particulars: for Blood glucose: 2 g/kg sucrose, mean ± SEM, n = 7. Format: in vivo, male Wistar rats.
Excerpt: as §2, §3, §4

In another data set the test system is experimental animals. As to the kind of experiment: Oral administration of high doses to experimental animals (symptoms). Format: in vivo. Particulars: even high doses.

T2 sequence (P14410 whole entry): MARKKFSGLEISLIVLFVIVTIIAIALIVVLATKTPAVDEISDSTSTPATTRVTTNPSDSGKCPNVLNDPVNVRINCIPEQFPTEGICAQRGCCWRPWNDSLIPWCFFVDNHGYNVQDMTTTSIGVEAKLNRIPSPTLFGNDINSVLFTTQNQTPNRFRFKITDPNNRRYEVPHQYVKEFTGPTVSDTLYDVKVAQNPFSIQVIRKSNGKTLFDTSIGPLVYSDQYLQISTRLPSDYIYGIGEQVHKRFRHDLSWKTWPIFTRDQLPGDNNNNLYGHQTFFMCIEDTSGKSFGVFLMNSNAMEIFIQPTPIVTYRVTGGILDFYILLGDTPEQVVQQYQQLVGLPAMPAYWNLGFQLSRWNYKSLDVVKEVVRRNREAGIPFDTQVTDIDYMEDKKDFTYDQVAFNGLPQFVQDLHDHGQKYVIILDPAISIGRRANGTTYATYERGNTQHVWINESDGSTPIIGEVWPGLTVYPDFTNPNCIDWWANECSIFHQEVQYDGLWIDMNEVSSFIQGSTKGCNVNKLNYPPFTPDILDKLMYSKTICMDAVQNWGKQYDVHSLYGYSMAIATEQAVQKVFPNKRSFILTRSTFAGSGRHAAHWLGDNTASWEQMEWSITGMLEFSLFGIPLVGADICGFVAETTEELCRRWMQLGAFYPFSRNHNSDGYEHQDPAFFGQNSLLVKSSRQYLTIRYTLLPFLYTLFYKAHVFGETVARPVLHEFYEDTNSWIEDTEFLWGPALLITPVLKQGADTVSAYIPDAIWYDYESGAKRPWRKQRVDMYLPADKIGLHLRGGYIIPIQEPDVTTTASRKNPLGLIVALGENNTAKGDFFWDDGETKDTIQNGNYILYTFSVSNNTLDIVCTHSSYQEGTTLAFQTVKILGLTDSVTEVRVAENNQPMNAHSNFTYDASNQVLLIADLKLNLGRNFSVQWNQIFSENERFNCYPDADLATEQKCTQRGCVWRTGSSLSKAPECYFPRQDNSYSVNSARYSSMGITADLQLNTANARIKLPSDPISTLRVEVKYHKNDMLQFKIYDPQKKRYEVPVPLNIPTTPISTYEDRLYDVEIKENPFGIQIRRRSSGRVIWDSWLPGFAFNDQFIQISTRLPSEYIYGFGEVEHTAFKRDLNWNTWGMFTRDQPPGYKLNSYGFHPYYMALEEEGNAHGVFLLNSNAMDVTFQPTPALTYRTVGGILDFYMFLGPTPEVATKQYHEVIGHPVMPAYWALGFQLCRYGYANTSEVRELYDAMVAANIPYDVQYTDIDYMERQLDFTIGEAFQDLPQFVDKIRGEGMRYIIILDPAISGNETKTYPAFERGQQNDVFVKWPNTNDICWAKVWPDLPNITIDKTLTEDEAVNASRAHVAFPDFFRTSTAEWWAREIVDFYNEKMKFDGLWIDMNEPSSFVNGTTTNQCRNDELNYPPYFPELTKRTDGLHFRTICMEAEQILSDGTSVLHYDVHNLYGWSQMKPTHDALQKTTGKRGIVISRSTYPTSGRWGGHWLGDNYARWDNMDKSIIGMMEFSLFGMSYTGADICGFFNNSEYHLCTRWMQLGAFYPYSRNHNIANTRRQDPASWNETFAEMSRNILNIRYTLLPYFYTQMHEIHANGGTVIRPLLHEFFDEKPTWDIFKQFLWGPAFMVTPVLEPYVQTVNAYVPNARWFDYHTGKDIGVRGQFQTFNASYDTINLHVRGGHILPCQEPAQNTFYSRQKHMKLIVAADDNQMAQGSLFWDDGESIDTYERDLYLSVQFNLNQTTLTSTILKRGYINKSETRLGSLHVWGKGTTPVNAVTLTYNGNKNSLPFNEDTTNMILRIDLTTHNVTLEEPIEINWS

On to `CC1OC(OC2C(CO)OC(O)C(O)C2O)C(O)C(O)C1NC1C(O)C(O)C(OC2OC(CO)C(OC3OC(C)C(NC4C(O)C(O)C(O)C5(CO)OC45)C(O)C3O)C(O)C2O)C2(CO)OC12` (centres unmarked) [W-46 H], for which the “inhibition of the α-amylase from the pancreas (in words)” value in data set [1] is reported as “strongly inhibit”. For the same compound, the “specific activity, α-amylase inhibitor units (AIU) per mg” value in data set [1] and in data set [1] (listed as W-46 H (free base)) was 4×10^4 AIU/mg in each case. For the same compound, the “inhibition of the disaccharidases from the small intestine mucosa, in particular the saccharase (in words)” value in data set [2] is on record as “strongly inhibit”. In addition, the “specific activity, saccharase inhibitor units (SIU) per mg” value in data set [2] and in data set [2] (listed as W-46 H (free base)) was 1×10^4 SIU/mg in each case. Besides, the minimal effective dose was 0.27 mg/kg in data set [3] (Rattus norvegicus, po, 1 h, starch-fed rats, p.o., calculated from Table 1, read-out: limiting value (amount per kg at whose administration a clear action can still be seen after one hour)) and 1.29 mg/kg in data set [4] (Rattus norvegicus, po, 1 h, sucrose-fed rats, p.o., calculated from Table 2, read-out: limiting value (amount per kg at whose administration a clear action can still be seen after one hour)). Moreover, the Blood glucose in data set [3] (p.o. dose 0.3 mg/kg, 0 hours) was found to be 3.77 ± 0.09 mmol/L; in data set [3] (p.o. dose 0.3 mg/kg, 0.5 hours), 5.53 ± 0.17 mmol/L; in data set [3] (p.o. dose 0.3 mg/kg, 1 hour), 5.59 ± 0.06 mmol/L; in data set [3] (p.o. dose 0.3 mg/kg, 2 hours), 5.67 ± 0.13 mmol/L; in data set [3] (p.o. dose 0.3 mg/kg, 3 hours), 4.86 ± 0.18 mmol/L; in data set [3] (p.o. dose 0.3 mg/kg, 5 hours) it was 4.39 ± 0.13 mmol/L. Also, the Blood glucose is 3.93 ± 0.10 mmol/L in data set [3] (p.o. dose 1.0 mg/kg, 0 hours); 5.04 ± 0.08 mmol/L in data set [3] (p.o. dose 1.0 mg/kg, 0.5 hours); 5.07 ± 0.09 mmol/L in data set [3] (p.o. dose 1.0 mg/kg, 1 hour); 4.99 ± 0.14 mmol/L in data set [3] (p.o. dose 1.0 mg/kg, 2 hours); 4.57 ± 0.10 mmol/L in data set [3] (p.o. dose 1.0 mg/kg, 3 hours); 4.13 ± 0.08 mmol/L in data set [3] (p.o. dose 1.0 mg/kg, 5 hours). Besides, the Blood glucose is 3.99 ± 0.10 mmol/1 in data set [4] (p.o. dose 1 mg/kg, 0 minutes); 6.07 ± 0.28 mmol/1 in data set [4] (p.o. dose 1 mg/kg, 15 minutes); 6.01 ± 0.22 mmol/1 in data set [4] (p.o. dose 1 mg/kg, 30 minutes); 6.34 ± 0.14 mmol/1 in data set [4] (p.o. dose 1 mg/kg, 60 minutes); 5.45 ± 0.13 mmol/1 in data set [4] (p.o. dose 1 mg/kg, 120 minutes); 4.57 ± 0.07 mmol/1 in data set [4] (p.o. dose 1 mg/kg, 240 minutes). Besides, the Blood glucose in data set [4] (p.o. dose 3 mg/kg, 0 minutes) was 3.94 ± 0.14 mmol/1; in data set [4] (p.o. dose 3 mg/kg, 15 minutes) it was 5.71 ± 0.23 mmol/1; in data set [4] (p.o. dose 3 mg/kg, 30 minutes), 5.53 ± 0.19 mmol/1; in data set [4] (p.o. dose 3 mg/kg, 60 minutes), 5.47 ± 0.15 mmol/1; in data set [4] (p.o. dose 3 mg/kg, 120 minutes) it was 5.20 ± 0.16 mmol/1; in data set [4] (p.o. dose 3 mg/kg, 240 minutes) it was 4.83 ± 0.15 mmol/1. The Blood glucose in data set [4] (p.o. dose 10 mg/kg, 0 minutes) is listed as 4.01 ± 0.15 mmol/1; in data set [4] (p.o. dose 10 mg/kg, 15 minutes) it was 5.06 ± 0.20 mmol/1; in data set [4] (p.o. dose 10 mg/kg, 30 minutes), 5.11 ± 0.10 mmol/1; in data set [4] (p.o. dose 10 mg/kg, 60 minutes) it was 4.82 ± 0.09 mmol/1; in data set [4] (p.o. dose 10 mg/kg, 120 minutes), 4.50 ± 0.11 mmol/1; in data set [4] (p.o. dose 10 mg/kg, 240 minutes), 4.29 ± 0.22 mmol/1. Besides, the “striking symptoms after oral administration” value in the data set with experimental animals was “not possible to detect striking symptoms”.

With `CC1OC(OC2C(CO)OC(O)C(O)C2O)C(O)C(O)C1NC1C(O)C(O)C(OC2OC(CO)C(OC3OC(C)C(NC4C(O)C(O)C(O)C5(CO)OC45)C(O)C3O)C(O)C2O)C2(CO)OC12` (centres unmarked) [W-46 H glucuronate], the “specific activity, α-amylase inhibitor units (AIU) per mg” value in data set [1] is 3.6×10^4 AIU/mg. The “specific activity, saccharase inhibitor units (SIU) per mg” value in data set [2] was 9×10^3 SIU/mg.

In the case of `CC1OC(OC2C(CO)OC(O)C(O)C2O)C(O)C(O)C1NC1C(O)C(O)C(OC2OC(CO)C(OC3OC(C)C(NC4C(O)C(O)C(O)C5(CO)OC45)C(O)C3O)C(O)C2O)C2(CO)OC12` (centres unmarked) [W-46 H sulfate], the “specific activity (α-amylase inhibitor units)” value in data set [1] (sulfate, printed without per mg) is 3.8×10^4 AIU. Besides, the “specific activity, saccharase inhibitor units (SIU) per mg” value in data set [2] is 9.6×10^3 SIU/mg.

Turning to `CC1OC(O)C(O)C(O)C1NC1C(O)C(O)C(OC2OC(CO)C(OC3OC(C)C(NC4C(O)C(O)C(O)C5(CO)OC45)C(O)C3O)C(O)C2O)C2(CO)OC12` (centres unmarked) [W-46 P], in data set [1], the “inhibition of the α-amylase from the pancreas (in words)” value is “strongly inhibit” and the “specific activity, α-amylase inhibitor units (AIU) per mg” value is 1×10^4 AIU/mg. In data set [2], the “inhibition of the disaccharidases from the small intestine mucosa, in particular the saccharase (in words)” value was “strongly inhibit” and the “specific activity, saccharase inhibitor units (SIU) per mg” value is listed as 3×10^4 SIU/mg. Besides, the “striking symptoms after oral administration” value in the data set with experimental animals is “not possible to detect striking symptoms”.

For `CC1OC(OC2C(CO)OC(O)C(O)C2O)C(O)C(O)C1NC1C(O)C(O)C(OC2OC(CO)C(OC3OC(C)C(NC4C(O)C(O)C(O)C5(CO)OC45)C(O)C3O)C(O)C2O)C2(CO)OC12` (centres unmarked) [W-46 H chloride], the “specific activity, α-amylase inhibitor units (AIU) per mg” value in data set [1] was 3.9×10^4 AIU/mg. In addition, the “specific activity, saccharase inhibitor units (SIU) per mg” value in data set [2] is on record as 1×10^4 SIU/mg.
